Assay results taken from publication PMC9815933, “Computational Drug Repurposing Approach to Identify Novel Inhibitors of ILK Protein for Treatment of Esophageal Squamous Cell Carcinoma” (Journal of Oncology, 2022).

The compounds below were run against T1, integrin-linked kinase (ILK) (Homo sapiens, UniProt Q13418) (assay: SPR (Biacore S200), ILK immobilized on CM5 chip).
T1 sequence (Q13418 1-452): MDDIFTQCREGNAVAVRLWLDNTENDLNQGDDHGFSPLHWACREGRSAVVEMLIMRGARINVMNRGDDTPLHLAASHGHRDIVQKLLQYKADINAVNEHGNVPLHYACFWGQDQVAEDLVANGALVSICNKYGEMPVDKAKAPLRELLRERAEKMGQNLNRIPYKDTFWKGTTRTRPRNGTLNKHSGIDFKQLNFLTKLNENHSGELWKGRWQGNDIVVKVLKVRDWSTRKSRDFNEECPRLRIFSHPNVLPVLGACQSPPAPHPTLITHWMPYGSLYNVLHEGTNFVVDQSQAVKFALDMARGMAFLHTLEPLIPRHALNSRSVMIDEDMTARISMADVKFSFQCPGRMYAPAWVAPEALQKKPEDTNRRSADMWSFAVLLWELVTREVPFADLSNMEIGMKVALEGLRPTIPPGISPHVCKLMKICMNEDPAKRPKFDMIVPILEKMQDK
Format: binding

Point of comparison: `COc1ccc(N=Nc2c(N)n[nH]c2N)cc1` [ILK-IN-3, reference compound], Kd 2640 nM. Against it:
- Cc1cn(-c2cc(NC(=O)c3ccc(C)c(Nc4nccc(-c5cccnc5)n4)c3)cc(C(F)(F)F)c2)cn1 [d1, Nilotinib] — 2.4-fold higher, 6410 nM
- COc1cc([C@@H]2c3cc4c(cc3[C@@H](O[C@@H]3O[C@@H]5CO[C@@H](c6cccs6)O[C@H]5[C@H](O)[C@H]3O)[C@H]3COC(=O)[C@H]23)OCO4)cc(OC)c1O [d2, Teniposide] — within 1.5-fold, 1790 nM
